Measurements published in ChEMBL document CHEMBL1159215, “Isolation of antifungal and larvicidal constituents of Diplolophium buchanani by centrifugal partition chromatography” (1995).
Active and inactive are the calls of the source. No cut-off for these calls is given here.

Key:
[1] = tested on: Aedes aegypti; test: Larvicidal activity against Aedes aegypti larvae after 24 hrs […]; assay type: functional
[2] = tested on: Cladosporium cucumerinum; test: Antifungal activity against Cladosporium cucumerinum assessed as inhibition of spore growth by TLC bioassay; assay type: functional
[3] = tested on: Aedes aegypti; test: Larvicidal activity against Aedes aegypti larvae at 400 ppm after 24 hrs […]; assay type: functional, organism-based

Row | Compound | LD100 [1] | Activity [2] | Activity [1] | Activity [3]
1 | C/C=C\c1cc(OC)c(OC)cc1OC [CIS-ASARONE] | 16 ppm | – | – | –
2 | Clc1ccc(COC(Cn2ccnc2)c2ccc(Cl)cc2Cl)c(Cl)c1 (configuration not stated) [MICONAZOLE] | – | 1 µg | – | –
3 | CC1(C)O[C@H]1COc1c2ccoc2cc2oc(=O)ccc12 [OXYPEUCEDANIN] | 25 ppm | 1 µg | – | –
4 | CC(C)(O)[C@H](O)COc1c2ccoc2cc2oc(=O)ccc12 [OXYPEUCEDANIN HYDRATE] | – | 10 µg | inactive | inactive
